Legend:
[1] = Inhibition of ABAD (unknown origin); design: species or system Homo sapiens
[2] = Cmax in C57BL/6 mouse at 10 mg/kg by LC-MS/MS analysis; assay type: ADME, organism-based; design: dose 10 mg/kg; settings: in vivo
[3] = Drug uptake in C57BL/6 mouse brain at 10 mg/kg by LC-MS/MS analysis; assay type: ADME, organism-based; settings: in vivo
HEK293 [4] = assay: Displacement of radiolabeled estradiol ABAD (unknown origin) transfected in HEK293 cells at 300 uM relative to control; assay type: cell-based; settings: Homo sapiens
[5] = Displacement of radiolabeled estradiol ABAD (unknown origin) transfected in HEK293 cells; assay type: cell-based, Homo sapiens
HEK293 [6] = assay: Displacement of radiolabeled estradiol ABAD (unknown origin) transfected in HEK293 cells at 100 uM relative to control; assay type: cell-based; settings: Homo sapiens

Structure (SMILES): O=C(C(c1ccccc1)n1cnc2[nH]ncc2c1=S)N1CCC(O)(c2ccccc2)CC1 (stereo unspecified)
- IC50 [1]: 0.081 µM

Structure (SMILES): O=C(C(c1ccccc1)n1cnc2[nH]ncc2c1=S)N1CCC(O)(c2ccc(Br)cc2)CC1 (stereo unspecified)
- IC50 [1]: 0.082 µM

Structure (SMILES): CCN(CC)C(=O)C(c1ccccc1)n1cnc2[nH]ncc2c1=S (stereo unspecified)
- IC50 [1]: 0.093 µM

Structure (SMILES): COc1ccc2nc(N[C@@H](c3ccc(O)cc3)P(=O)(OC)OC)sc2c1
- Cmax [2]: 4.8 ng/mL
- Drug uptake [3]: 4 to 50 ng/mL
- IC50 [1]: 52.7 µM

Structure (SMILES): O=C(C(c1ccccc1)n1cnc2[nH]ncc2c1=S)N1CCCCCCC1 (stereo unspecified)
- IC50 [1]: 0.096 µM

Structure (SMILES): O=C(Nc1ccc(O)c(Cl)c1)Nc1nc2ccc(F)cc2s1
- IC50 [1]: 1.89 µM

Structure (SMILES): CCCCC1(O)CCN(C(=O)C(c2ccccc2)n2cnc3[nH]ncc3c2=S)CC1 (stereo unspecified)
- IC50 [1]: 0.071 µM

Structure (SMILES): COc1ccc(NC(=N)Nc2nc3ccc(OC)cc3s2)cc1
- IC50 [1]: 3.06 µM

Structure (SMILES): O=C([C@H](c1ccccc1)n1cnc2[nH]ncc2c1=S)N1CCCCCC1
- IC50 [1]: 0.092 µM

Structure (SMILES): O=C(Nc1ccc(O)c(Cl)c1)Nc1nc2ccc(Cl)cc2s1
- IC50 [1]: 1.67 µM

Structure (SMILES): COc1cccc(CN2CCN(C[C@@]3(O)CC[C@@]4(C)[C@@H](CC[C@@H]5[C@@H]4CC[C@]4(C)C(=O)CC[C@@H]54)C3)CC2)c1
- inhibition (HEK293 [4]): 30%
- IC50 [5]: 0.55 µM
- inhibition (HEK293 [6]): 4.7%

Structure (SMILES): O=C(C(c1cccc(O)c1)n1cnc2[nH]ncc2c1=S)N1CCCCCC1 (stereo unspecified)
- IC50 [1]: 0.051 µM
